Records with an inconclusive call do not appear. Active and inactive are the calls of the source. No rule for the calls is given here; tested in MIN6 cells. Some results are limits rather than exact numbers.

Assay [1] is described as follows: GFP-wavelength compound autofluorescence in cells – imaging, high-content imaging, artefact control, dose response (AID 2124).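 As to cell count: cells exposed to compound for 48 hours before fixing.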 The conditions noted are these: cells, GFP-channel autofluorescence, high-content imaging; cell count; at 10 µM.
Assay [2] relates to cells, GFP-channel autofluorescence, high-content imaging. Described as above.

For `COc1ccc2c(n1)Sc1nc3ccccc3nc1N2`, the cell count in assay [1] is 3030 cells. The EC50 in assay [2] is 6.69 µM.

Take `C=CCN1C(=O)c2cccc3c(N4CCCCC4)ccc(c23)C1=O`: the cell count in assay [1] turned out to be 3300 cells. In addition, the EC50 in assay [2] was 6.64 µM.

In turn, `COc1cc(/C=C(\C#N)c2nc3ccccc3o2)ccc1O` came in with a cell count in assay [1] of 3540 cells. In assay [2], the EC50 was 2.62 µM.

The molecule `O=C(C1=C(O)C(=O)N(c2nccs2)C1c1ccccc1)c1cc2ccccc2o1` (stereo not given) displayed a cell count in assay [1] of 2920 cells. Further, in assay [2], the EC50 is 8.55 µM.

Consider `O=[N+]([O-])c1ccc(N2N=C(c3ccco3)CC2c2ccccc2)cc1` (stereo not given), for which the cell count in assay [1] was 2840 cells. Moreover, the EC50 in assay [2] was 6.38 µM.

Turning to `C=CCN1C(=O)/C(=C/c2ccc(N(C)C)cc2)S/C1=N\c1nnc(CC)s1`, the cell count in assay [1] amounted to 2900 cells. The EC50 in assay [2] was 5.38 µM.

For `COc1ccc(/C=C2\CC/C(=C\c3ccc(OC)cc3OC)C2=O)c(OC)c1`, the cell count in assay [1] was found to be 3090 cells. For the same molecule, the EC50 in assay [2] is 6.73 µM.

In the case of `CCCN1C=CC(=CC=C(C#N)C#N)C=C1`, the cell count in assay [1] is 3220 cells. Further, the EC50 in assay [2] is 7.84 µM.

`COc1ccccc1N/C=C/c1onc(C)c1[N+](=O)[O-]`: the cell count in assay [1] was 3140 cells. Besides, the EC50 in assay [2] is 7.9 µM.

For the molecule `O=C(OCCN1C(=O)c2cccc3c(N4CCOCC4)ccc(c23)C1=O)c1ccc(Cl)cc1Cl`, the cell count in assay [1] stood at 1690 cells. In addition, the EC50 in assay [2] was 6.84 µM.

`Cc1cc(N2CCCC2)ccc1/C=C1\NC(=S)N(C)C1=O` came in with a cell count in assay [1] of 2440 cells. Moreover, the EC50 in assay [2] is 7.7 µM.

In assay [1], `COc1ccc2c(C)cc(SCC(=O)N(C)C3CCS(=O)(=O)C3)nc2c1` (stereo not given) yielded a cell count of 3270 cells. The EC50 in assay [2] was 9.63 µM.

`Cc1c(-c2ccc(O)cc2)nc2nc(-c3ccccc3)c(-c3ccccc3)nn12`: the cell count in assay [1] was determined as 3200 cells. Also, in assay [2], the EC50 is > 16 µM (inactive).

On to `CCN1CC=C2C(C1)C(c1ccc(Cl)s1)C(C#N)=C(N)C2(C#N)C#N` (stereo not given), for which the cell count in assay [1] was determined as 3020 cells. In addition, the EC50 in assay [2] is 11.5 µM (inactive).

Turning to `CN1CC=C2C(C#N)=C(N)C(C#N)(C#N)[C@H](c3cccc(Cl)c3)C2C1` (stereo not given in full), the cell count in assay [1] turned out to be 2960 cells. Besides, the EC50 in assay [2] is 9.06 µM.

`CCOCCCNc1nc2c(C)cccn2c(=O)c1/C=C1\SC(=S)N(C(C)CC)C1=O` (stereo not given) registered a cell count in assay [1] of 2910 cells. Further, the EC50 in assay [2] was > 16 µM (inactive).

On to `Cc1cc2nc3c(=O)n(C4CCCCC4)c(=O)[nH]c3nc2cc1N`, for which the cell count in assay [1] came out at 3150 cells. Besides, the EC50 in assay [2] is 11.8 µM (inactive).

In assay [1], `O=C(O)c1ccccc1N/N=C/c1c(Sc2nnnn2-c2ccccc2)nc2ccccn2c1=O` yielded a cell count of 3260 cells. In assay [2], the EC50 is 10.7 µM (inactive).

`CCCCn1nc(-c2ccccc2)c2nc3ccccc3nc21` displayed a cell count in assay [1] of 3250 cells. Further, the EC50 in assay [2] was 13.8 µM (inactive).

With `Nc1c(C(=O)Nc2nc3ccccc3s2)sc2nc(-c3cccs3)ccc12`, the cell count in assay [1] was 217 cells. In addition, in assay [2], the EC50 is 8.63 µM.

The molecule `CC(C)(C)NC(=S)N/N=C\c1ccc(-c2ccc([N+](=O)[O-])cc2)o1` gave a cell count in assay [1] of 3000 cells. Besides, the EC50 in assay [2] is 11.4 µM (inactive).

As for `Nc1ccc2c(c1)Cc1cc([N+](=O)[O-])ccc1-2`, the cell count in assay [1] was 2910 cells. Moreover, the EC50 in assay [2] is 4.22 µM.

As to `COc1cccc(C2C3CN(C)CC=C3C(C#N)=C(N)C2(C#N)C#N)c1OC` (stereo not given), in assay [1], the cell count is 2400 cells. For the same molecule, the EC50 in assay [2] is 7.38 µM.

Consider `C/C(=N\Nc1ccc([N+](=O)[O-])cc1)c1cc2ccccc2o1`, for which the cell count in assay [1] turned out to be 2980 cells. Further, the EC50 in assay [2] is 8.87 µM.

Consider `O=C(O)c1cc(-c2ccc(/C=C3/SC(=S)N(Cc4ccccc4)C3=O)o2)ccc1Cl`, for which the cell count in assay [1] was found to be 2840 cells. In addition, the concentration for a half-maximal effect (EC50) in assay [2] was 7.47 µM.

In general, EC50 refers to the concentration giving half of the maximal effect.

Source of the values: PubChem BioAssay AID2124 (Sanford-Burnham Center for Chemical Genomics, 2009).
